Assay results as given in patent publication US9938258B2 (Karyopharm Therapeutics Inc., priority 2012, dated 2018).
Where two headings read alike, the source gives them in different places.

Legend:
[1] = system: MS751 cells; assay: MTT cell proliferation assay, MS751; format: cell-based, human; conditions: Homo sapiens
How it was run: (§1)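 Cells were seeded at 5,000-10,000 per well, left to attach overnight, then exposed to eight compound concentrations from 1 nM to 30 μM. After about 4 h with MTT, solubilized formazan was read at 490 nm and percent inhibition versus negative control was calculated.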

[2] = system: Z138 cells; assay: MTT cell proliferation assay, Z138; format: cell-based; conditions: Homo sapiens
How it was run: as §1

[3] = system: 3T3 cells; assay: MTT cell proliferation assay, 3T3; format: cell-based, mouse; conditions: Mus musculus
How it was run: as §1

[4] = MS751, MS751 cells, approximately 64-72 hours incubation, read-out: MTT Assay IC50, MS751
[5] = Z-138, Z138 cells, approximately 64-72 hours incubation, read-out: MTT Assay IC50, Z138
[6] = NIH3T3, 3T3 cells, approximately 64-72 hours incubation, read-out: MTT Assay IC50, 3T3
[7] = MS751, MS751 cells, eight concentrations 1 nM to 30 μM, incubation approximately 64-72 hours, read-out: MTT Assay IC50, MS751
[8] = Z-138, Z138 cells, eight concentrations 1 nM to 30 μM, incubation approximately 64-72 hours, read-out: MTT Assay IC50, Z138
[9] = NIH3T3, 3T3 cells, eight concentrations 1 nM to 30 μM, incubation approximately 64-72 hours, read-out: MTT Assay IC50, 3T3

SMILES: CC(=O)c1ccc(-c2cc(Cl)c3c(c2)CC(CNC(=O)/C=C/c2sc4ccccc4c2Cl)O3)s1 (stereo not drawn) [Compound 291, (E)-N-((5-(5-acetylthiophen-2-yl)-7-chloro-2,3-dihydrobenzofuran-2-yl)methyl)-3-(3-chlorobenzo[b]thiophen-2-yl)acrylamide]
- IC50 [1, 4]: > 30 µM
- IC50 [2, 5]: > 30 µM
- IC50 [3, 6]: > 30 µM

SMILES: CC1(C)COCCN1C(=O)c1ccc(-c2cc(Cl)c3c(c2)CC(/C=C/C(=O)NCc2ccc(N)nc2)O3)nc1 (stereo not drawn) [Compound 368, (E)-N-((6-aminopyridin-3-yl)methyl)-3-(7-chloro-5-(5-(3,3-dimethylmorpholine-4-carbonyl)pyridin-2-yl)-2,3-dihydrobenzofuran-2-yl)acrylamide]
- IC50 [1, 4]: < 0.1 µM
- IC50 [2, 5]: < 0.1 µM
- IC50 [3, 6]: 0.1 to 5 µM

SMILES: CC(=O)c1ccc(-c2cc(Cl)c3c(c2)CC(CNC(=O)/C=C/c2cnc(N)nc2)O3)s1 (stereo not drawn) [Compound 104, (E)-N-((5-(5-acetylthiophen-2-yl)-7-chloro-2,3-dihydrobenzofuran-2-yl)methyl)-3-(2-aminopyrimidin-5-yl)acrylamide]
- IC50 [1, 7]: > 30 µM
- IC50 [2, 8]: > 30 µM
- IC50 [3, 9]: > 30 µM

SMILES: CC(C)(O)c1ccc(-c2cc(Cl)c3c(c2)CC(CNC(=O)/C=C/c2ccc(N)nc2)O3)s1 (stereo not drawn) [Compound 321, (E)-3-(6-aminopyridin-3-yl)-N-((7-chloro-5-(5-(2-hydroxypropan-2-yl)thiophen-2-yl)-2,3-dihydrobenzofuran-2-yl)methyl)acrylamide]
- IC50 [1, 4]: 0.1 to 5 µM
- IC50 [2, 5]: < 0.1 µM
- IC50 [3, 6]: 5 to 30 µM

SMILES: Nc1ccc(/C=C/C(=O)NCC2Cc3cc(-c4ccc(C(=O)NNc5cnccn5)cc4)cc(Cl)c3O2)cn1 (stereo not drawn) [Compound 904, (E)-3-(6-aminopyridin-3-yl)-N-((7-chloro-5-(4-(2-(pyrazin-2-yl) hydrazine-1-carbonyl)phenyl)-2,3-dihydrobenzofuran-2-yl)methyl)acrylamide]
- IC50 [1, 4]: < 0.1 µM
- IC50 [2, 5]: < 0.1 µM
- IC50 [3, 6]: 0.1 to 5 µM

SMILES: O=C(/C=C/C1Cc2cc(-c3ccc(C(=O)N4CCOCC4)cc3)cc(Cl)c2O1)NCc1cccnc1 (stereo not drawn) [Compound 334, (E)-3-(7-Chloro-5-(4-(morpholine-4-carbonyl)phenyl)-2,3-dihydrobenzofuran-2-yl)-N-(pyridin-3-ylmethyl)acrylamide]
- IC50 [1, 4]: 0.1 to 5 µM
- IC50 [2, 5]: 0.1 to 5 µM
- IC50 [3, 6]: 5 to 30 µM

SMILES: Nc1ccc(/C=C/C(=O)NCC2Cc3cc(-c4ccc(C(=O)N5CCOCC5)c(F)c4)cc(Cl)c3O2)cn1 (stereo not drawn) [Compound 903, (E)-3-(6-aminopyridin-3-yl)-N-((7-chloro-5-(3-fluoro-4-(morpholine-4-carbonyl)phenyl)-2,3-dihydrobenzofuran-2-yl)methyl)acrylamide]
- IC50 [1, 4]: < 0.1 µM
- IC50 [2, 5]: < 0.1 µM
- IC50 [3, 6]: 0.1 to 5 µM

SMILES: CC(=O)c1ccc(-c2cc(Cl)c3c(c2)CC(CNC(=O)/C=C/c2nccs2)O3)s1 (stereo not drawn) [Compound 207]
- IC50 [1, 4]: > 30 µM
- IC50 [2, 5]: > 30 µM
- IC50 [3, 6]: > 30 µM

SMILES: CC1(CNC(=O)/C=C/c2ccc(N)nc2)Cc2cc(-c3ccc(C(=O)N4CCOCC4)cc3)cc(Cl)c2O1 (stereo not drawn) [Compound 349, (E)-3-(6-aminopyridin-3-yl)-N-((7-chloro-2-methyl-5-(4-(morpholine-4-carbonyl)phenyl)-2,3-dihydrobenzofuran-2-yl)methyl)acrylamide]
- IC50 [1, 4]: 0.1 to 5 µM
- IC50 [2, 5]: 0.1 to 5 µM
- IC50 [3, 6]: < 0.1 µM

SMILES: Nc1ccc(/C=C/C(=O)NCC2Cc3cc(-c4ccc(C(=O)N5CCOCC5)cc4)cc(C(F)(F)F)c3O2)cn1 (stereo not drawn) [Compound 346, (E)-3-(6-aminopyridin-3-yl)-N-((5-(4-(morpholine-4-carbonyl)phenyl)-7-(trifluoromethyl)-2,3-dihydrobenzofuran-2-yl)methyl)acrylamide]
- IC50 [1, 4]: < 0.1 µM
- IC50 [2, 5]: 0.1 to 5 µM
- IC50 [3, 6]: < 0.1 µM

SMILES: [2H]C1([2H])c2cc(-c3ccc(C(=O)N4CCOCC4)cc3)cc(Cl)c2OC1CNC(=O)/C=C/c1ccc(N)nc1 (stereo not drawn) [Compound 365, (E)-3-(6-aminopyridin-3-yl)-N-((7-chloro-3,3-dideutero-5-(4-(morpholine-4-carbonyl)phenyl)-2,3-dihydrobenzofuran-2-yl)methyl)acrylamide]
- IC50 [1, 4]: < 0.1 µM
- IC50 [2, 5]: 0.1 to 5 µM
- IC50 [3, 6]: < 0.1 µM

SMILES: Nc1ccc(CNC(=O)/C=C/C2Cc3cc(-c4ccccc4S(=O)(=O)N4CCOCC4)cc(Cl)c3O2)cn1 (stereo not drawn) [Compound 360, (E)-N-((6-aminopyridin-3-yl)methyl)-3-(7-chloro-5-(2-(morpholinosulfonyl)phenyl)-2,3-dihydrobenzofuran-2-yl)acrylamide]
- IC50 [1, 4]: < 0.1 µM
- IC50 [2, 5]: 0.1 to 5 µM
- IC50 [3, 6]: < 0.1 µM

SMILES: CC(=O)c1ccc(-c2cc(Cl)c3c(c2)CC(CNC(=O)/C=C/c2cc(C)[nH]c2C)O3)s1 (stereo not drawn) [Compound 185, (E)-N-((5-(5-acetylthiophen-2-yl)-7-chloro-2,3-dihydrobenzofuran-2-yl)methyl)-3-(2,5-dimethyl-1H-pyrrol-3-yl)acrylamide]
- IC50 [1, 7]: > 30 µM
- IC50 [2, 8]: > 30 µM
- IC50 [3, 9]: > 30 µM

SMILES: CC(=O)c1ccc(-c2cc(Cl)c3c(c2)CC(CNC(=O)/C=C/c2ccn(C)c2)O3)s1 (stereo not drawn) [Compound 213, (E)-N-((5-(5-acetylthiophen-2-yl)-7-chloro-2,3-dihydrobenzofuran-2-yl)methyl)-3-(1-methyl-1H-pyrrol-3-yl)acrylamide]
- IC50 [1, 4]: > 30 µM
- IC50 [2, 5]: > 30 µM
- IC50 [3, 6]: > 30 µM

SMILES: Nc1ccc(/C=C/C(=O)NCC2Cc3cc(-c4cc(F)c(C(=O)N5CCOCC5)cc4F)cc(Cl)c3O2)cn1 (stereo not drawn) [Compound 328, (E)-3-(6-Aminopyridin-3-yl)-N-((7-chloro-5-(2,5-difluoro-4-(morpholine-4-carbonyl)phenyl)-2,3-dihydrobenzofuran-2-yl)methyl)acrylamide]
- IC50 [1, 4]: < 0.1 µM
- IC50 [2, 5]: < 0.1 µM
- IC50 [3, 6]: 0.1 to 5 µM

SMILES: Nc1ccc(/C=C/C(=O)NCC2Cc3c(-c4cc(F)c(C(=O)N5CCOCC5)c(F)c4)ccc(Cl)c3O2)cn1 (stereo not drawn) [Compound 908, (E)-3-(6-Aminopyridin-3-yl)-N-((7-chloro-4-(3,5-difluoro-4-(morpholine-4-carbonyl)phenyl)-2,3-dihydrobenzofuran-2-yl)methyl)acrylamide]
- IC50 [1, 4]: < 0.1 µM
- IC50 [2, 5]: < 0.1 µM
- IC50 [3, 6]: 0.1 to 5 µM

SMILES: CC(=O)Nc1ccc(/C=C/C(=O)NCC2Cc3cc(-c4ccc(C(C)=O)s4)cc(Cl)c3O2)cn1 (stereo not drawn) [Compound 315, (E)-3-(6-acetamidopyridin-3-yl)-N-((5-(5-acetylthiophen-2-yl)-7-chloro-2,3-dihydrobenzofuran-2-yl)methyl)acrylamide]
- IC50 ([1]; MS751, read-out: MTT Assay IC50, MS751): > 30 µM
- IC50 ([2]; Z-138, read-out: MTT Assay IC50, Z138): > 30 µM
- IC50 ([3]; NIH3T3, read-out: MTT Assay IC50, 3T3): > 30 µM

SMILES: CC(=O)c1ccc(Oc2cc(Cl)c3c(c2)CC(CNC(=O)/C=C/c2cccnc2)O3)s1 (stereo not drawn) [Compound 303, (E)-N-((5-(5-acetylthiophen-2-yloxy)-7-chloro-2,3-dihydrobenzofuran-2-yl)methyl)-3-(pyridin-3-yl)acrylamide]
- IC50 [1, 4]: 0.1 to 5 µM
- IC50 [2, 5]: 0.1 to 5 µM
- IC50 [3, 6]: 0.1 to 5 µM

SMILES: CC(OC(=O)CCCC[C@@H]1SC[C@@H]2NC(=O)N[C@@H]21)c1ccc(-c2cc(Cl)c3c(c2)CC(CNC(=O)/C=C/c2cccnc2)O3)s1 (stereo partly drawn) [Compound 162, 1-(5-(7-chloro-2-(((E)-3-(pyridin-3-yl)acrylamido)methyl)-2,3-dihydrobenzofuran-5-yl)thiophen-2-yl)ethyl 5-((3aS,4S,6aR)-2-oxohexahydro-1H-thieno[3,4-d]imidazol-4-yl)pentanoate]
- IC50 [1, 7]: < 0.1 µM
- IC50 [2, 8]: < 0.1 µM
- IC50 [3, 9]: 0.1 to 5 µM

SMILES: O=C(/C=C/c1cccnc1)NCC1Cc2cc(-c3ccco3)cc(Cl)c2O1 (stereo not drawn) [Compound 42, (E)-N-((7-chloro-5-(furan-2-yl)-2,3-dihydrobenzofuran-2-yl)methyl)-3-(pyridin-3-yl)acrylamide]
- IC50 [1, 7]: 0.1 to 5 µM
- IC50 [2, 8]: 0.1 to 5 µM
- IC50 [3, 9]: 5 to 30 µM

SMILES: Nc1ccc(/C=C/C(=O)NCC2Cc3cc(-c4ccc(C(=O)N5CC(F)(F)C5)c(F)c4F)cc(Cl)c3O2)cn1 (stereo not drawn) [Compound 337]
- IC50 [1, 4]: < 0.1 µM
- IC50 [2, 5]: < 0.1 µM
- IC50 [3, 6]: 0.1 to 5 µM

SMILES: Nc1ccc(CNC(=O)/C=C/C2Cc3cc(-c4ccc(C(=O)N5CC(F)(F)C5)cc4)cc(Cl)c3O2)cn1 (stereo not drawn) [Compound 351, (E)-N-((6-aminopyridin-3-yl)methyl)-3-(7-chloro-5-(4-(3,3-difluoroazetidine-1-carbonyl)phenyl)-2,3-dihydrobenzofuran-2-yl)acrylamide]
- IC50 [1, 4]: 0.1 to 5 µM
- IC50 [2, 5]: 0.1 to 5 µM
- IC50 [3, 6]: 0.1 to 5 µM

SMILES: Nc1ccc(/C=C/C(=O)NCC2Cc3c(-c4ccc(C(=O)N5CCOCC5)cn4)ccc(Cl)c3O2)cn1 (stereo not drawn) [Compound 912, (E)-3-(6-aminopyridin-3-yl)-N-((7-chloro-4-(5-(morpholine-4-carbonyl)pyridin-2-yl)-2,3-dihydrobenzofuran-2-yl)methyl)acrylamide]
- IC50 [1, 4]: 0.1 to 5 µM
- IC50 [2, 5]: < 0.1 µM
- IC50 [3, 6]: 0.1 to 5 µM

SMILES: CC(=O)c1ccc(-c2cc(Cl)c3c(c2)CC(CNC(=O)/C=C/c2csc4ccccc24)O3)s1 (stereo not drawn) [Compound 200, (E)-N-((5-(5-acetylthiophen-2-yl)-7-chloro-2,3-dihydrobenzofuran-2-yl)methyl)-3-(benzo[b]thiophen-3-yl) acrylamide]
- IC50 [1, 4]: > 30 µM
- IC50 [2, 5]: > 30 µM
- IC50 [3, 6]: > 30 µM
